Results published in ChEMBL document CHEMBL4417641, “Use of 2-(substituted phenylamino)benzoic acid fto inhibitor in treating leukemia” (2018).
Activity calls are given as the source filed them. No cut-off for these calls is given here.

Key:
[1] = target: Alpha-ketoglutarate-dependent dioxygenase FTO (Homo sapiens, UniProt Q9C0B1); experiment: Inhibition of FTO (unknown origin) assessed as reduction in demethylation using 39nt-m6 A-ssDNA and 2OG incubated for 2 hrs by non-denaturing polyacrylamide electrophoresis method
NB-4 [2] = experiment: Cytotoxicity against human NB4 cells assessed as inhibition of cell growth incubated for 72 hrs by MTS assay relative to control; format: functional
[3] = Cytotoxicity against human MM6 cells assessed as inhibition of cell growth incubated for 72 hrs by MTS assay relative to control; format: functional
NB-4 [4] = experiment: Cytotoxicity against human NB4 cells assessed as inhibition of cell growth incubated for 72 hrs by MTS assay; format: functional, cell-based; settings: NB-4, 72 h
[5] = Cytotoxicity against human MM6 cells assessed as inhibition of cell growth incubated for 72 hrs by MTS assay; format: functional, cell-based
NB-4 [6] = experiment: Cytotoxicity against human NB4 cells assessed as inhibition of cell growth incubated for 48 hrs by MTS assay; format: functional, cell-based; settings: NB-4, 48 h
[7] = Cytotoxicity against human MM6 cells assessed as inhibition of cell growth incubated for 48 hrs by MTS assay; format: functional, cell-based
MONO-MAC-6 [8] = experiment: Antitumor activity against human MONO-MAC-6 cells xenografted in NSG mouse assessed as mouse survival at 2 mg/kg, ip dosed for ten consecutive days and measured after 40 days post treatment; format: functional; settings: MONO-MAC-6, ip, 960 h
MONO-MAC-6 [9] = experiment: Antitumor activity against human MONO-MAC-6 cells xenografted in NSG mouse assessed as mouse survival at 2 mg/kg, ip dosed for ten consecutive days and measured after 55 days post treatment; format: functional; settings: MONO-MAC-6, ip, 1320 h
MONO-MAC-6 [10] = experiment: Antitumor activity against human MONO-MAC-6 cells xenografted in NSG mouse assessed as mouse survival at 2 mg/kg, ip dosed for ten consecutive days and measured after 60 days post treatment; format: functional; settings: MONO-MAC-6, ip, 1440 h
MONO-MAC-6 [11] = experiment: Antitumor activity against human MONO-MAC-6 cells xenografted in NSG mouse assessed as mouse survival at 2 mg/kg, ip dosed for ten consecutive days and measured after 62 days post treatment; format: functional; settings: MONO-MAC-6, ip, 1488 h
MONO-MAC-6 [12] = experiment: Antitumor activity against human MONO-MAC-6 cells xenografted in NSG mouse assessed as mouse survival at 2 mg/kg, ip dosed for ten consecutive days and measured after 120 days post treatment; format: functional; settings: MONO-MAC-6, ip, 2880 h
MONO-MAC-6 [13] = experiment: Antitumor activity against human MONO-MAC-6 cells xenografted in NSG mouse assessed as improvement in spleen swelling by measuring spleen weight at 2 mg/kg, ip dosed for ten consecutive days (reference value: 55 mg); format: functional
MONO-MAC-6 [14] = experiment: Antitumor activity against human MONO-MAC-6 cells xenografted in NSG mouse assessed as improvement in liver swelling by measuring liver weight at 2 mg/kg, ip dosed for ten consecutive days (reference value: 2200 mg); format: functional
MONO-MAC-6 [15] = experiment: Antitumor activity against human MONO-MAC-6 cells xenografted in NSG mouse assessed as reduction in tumor cell transplantation efficiency at 2 mg/kg, ip dosed for ten consecutive days and measured after 40 to days post treatment; format: functional, organism-based

Chain of Alpha-ketoglutarate-dependent dioxygenase FTO (Q9C0B1 whole entry): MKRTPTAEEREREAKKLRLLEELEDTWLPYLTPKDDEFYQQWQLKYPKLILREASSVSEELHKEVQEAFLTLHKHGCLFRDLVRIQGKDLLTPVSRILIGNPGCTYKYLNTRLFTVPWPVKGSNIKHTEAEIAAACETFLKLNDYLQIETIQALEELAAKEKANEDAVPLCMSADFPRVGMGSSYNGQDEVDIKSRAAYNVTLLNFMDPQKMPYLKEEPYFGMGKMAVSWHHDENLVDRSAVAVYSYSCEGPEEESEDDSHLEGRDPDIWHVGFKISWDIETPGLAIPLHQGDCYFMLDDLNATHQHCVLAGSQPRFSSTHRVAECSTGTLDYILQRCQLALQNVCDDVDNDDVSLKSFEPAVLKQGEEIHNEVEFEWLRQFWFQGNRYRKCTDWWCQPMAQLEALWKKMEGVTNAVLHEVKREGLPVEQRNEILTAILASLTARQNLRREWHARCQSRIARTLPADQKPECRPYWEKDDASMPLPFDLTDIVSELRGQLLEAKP

Row | IC50 [1] [µM] | Structure (SMILES) | growth inhibition (GI) (NB-4 [2]) [%] | growth inhibition (GI) [3] [%] | IC50 (NB-4 [4]) [µM] | IC50 [5] [µM] | also measured
1 | 7.6 | O=C(O)c1ccccc1Nc1c(Cl)cc(-c2ccn[nH]2)cc1Cl | 25 | 29 |  |  | 
2 | 4.6 | O=C(O)c1ccccc1Nc1c(Cl)cc(-c2ccncc2)cc1Cl | 39 | 46 |  |  | 
3 |  | Cc1n[nH]c(C)c1-c1cc(Cl)c(Nc2ccccc2C(=O)O)c(Cl)c1 | 20 | 18 |  |  | 
4 |  | Cc1noc(C)c1-c1cc(Cl)c(Nc2ccccc2-c2nn[nH]n2)c(Cl)c1 | 26 | 23 |  |  | 
5 | 1.1 | Cc1noc(C)c1-c1cc(Cl)c(Nc2ccccc2-c2noc(=O)[nH]2)c(Cl)c1 | 100 | 100 | 5.3 | 5.8 | IC50 (NB-4 [6]): 6.3 µM; IC50 [7]: 9.9 µM
6 |  | Cc1noc(C)c1-c1cc(Cl)c(Nc2ccccc2C(=O)O)c(Cl)c1 | 70 | 75 | 44.8 | 23.6 | 
7 | 30 to 50 | Cc1cc(C)n(-c2cc(Cl)c(Nc3ccccc3C(=O)O)c(Cl)c2)n1 |  |  |  |  | 
8 | 1.2 | O=C(O)c1ccc(-c2cc(Cl)c(Nc3ccccc3C(=O)O)c(Cl)c2)s1 |  |  |  |  | 

Row | Structure (SMILES) | IC50 [1] [µM] | growth inhibition (GI) (NB-4 [2]) [%] | growth inhibition (GI) [3] [%] | IC50 (NB-4 [4]) [µM] | IC50 [5] [µM] | also measured
9 | Cc1noc(C)c1-c1cc(Cl)c(Nc2ccccc2C(=O)NO)c(Cl)c1 | 1.6 | 100 | 100 | 0.8 | 1.5 | IC50 (NB-4 [6]): 4.7 µM; IC50 [7]: 10.4 µM; survival at 2 mg/kg (MONO-MAC-6 [8]): 80%; survival at 2 mg/kg (MONO-MAC-6 [9]): 60%; survival at 2 mg/kg (MONO-MAC-6 [10]): 40%; survival at 2 mg/kg (MONO-MAC-6 [11]): 30%; survival at 2 mg/kg (MONO-MAC-6 [12]): 15%; Activity (MONO-MAC-6 [13]): 18 mg; Activity (MONO-MAC-6 [14]): 800 mg; Activity (MONO-MAC-6 [15]): Active
